Data published in patent US20070117770A1, “Human ribosomal DNA (rDNA) and ribosomal RNA (rRNA) nucleic acids and uses thereof” (Cylene Pharmaceuticals, Inc., priority 2005, published 2007).

What was measured:
rRNA synthesis, HCT-116 = assay: PCR assay of rRNA synthesis from 45S rDNA (5' ETS probe); format: cell-based; details: various concentrations; two hour or four hour incubation (FIGS. 4A, 4B)
Experimental: Assays were conducted to determine the effects of compounds on rRNA synthesis from 45S rDNA. In particular, compound A-1 at various concentrations was incubated with cells and tested for an effect on rRNA synthesis after a two hour or four hour incubation with the compound. Synthesized rRNA was quantified by a polymerase chain reaction (PCR) assay. A primer/probe set was designed using Primer Express software and synthesized by Applied Biosystems. The 5′ ETS Probe utilized had the following sequence (@ its 3′ end): 6FAM-TTG ATC CTG CCA GTA GC-MGBNFQ (SEQ ID NO:227). The primer sequences were as follows:
Mix • 1 ug RNA • 2.5 ul 10× Taq Man buffer • 5.5 ul 25 mM MgCl2 • 5 ul of a mix of dNTP (500 uM each) • 1.2 ul random hexamer primer (2.5 uM stock) • 0.5 ul RNase inhibitor (0.4 units/ul) • 0.6 ul Reverse Transcriptase (1.2 units/ul) • bring to 25 ul total volume with water
Mix • 5 ul Reverse Transcriptase reaction product • 12.5 ul 2×PCR mix • 1 uM forward primer • 1 uM reverse primer • 0.5 uM Taq Man probe • 500 nM Rox • Adjust to 25 ul final volume with water
PCR cycles • 95 degrees C. 1 minute • 40 cycles of • 95 degrees C. 15 seconds • 60 degrees C. 1 minute.
Fluorescence of digested label was detected and quantified. […] The effect of other compounds on rRNA synthesis also were assessed in the assay, and provided in the table hereafter are IC50 values of selected compounds pertaining to rRNA synthesis and cMYC RNA synthesis.

nucleolin/6183NT = biological target: T1, nucleolin/6183NT (Homo sapiens, UniProt P19338); assay: EMSA, interference with nucleolin/nucleic acid ligand interaction; format: binding; design: key to Activity of Compound A-1 (relative interference), ligand 6183NT: +: least interference by compound A-1; ++++: greatest interference by compound A-1
T1 construct: without the N-terminal acidic stretches domain
T1 sequence (P19338 284-710 limits assumed): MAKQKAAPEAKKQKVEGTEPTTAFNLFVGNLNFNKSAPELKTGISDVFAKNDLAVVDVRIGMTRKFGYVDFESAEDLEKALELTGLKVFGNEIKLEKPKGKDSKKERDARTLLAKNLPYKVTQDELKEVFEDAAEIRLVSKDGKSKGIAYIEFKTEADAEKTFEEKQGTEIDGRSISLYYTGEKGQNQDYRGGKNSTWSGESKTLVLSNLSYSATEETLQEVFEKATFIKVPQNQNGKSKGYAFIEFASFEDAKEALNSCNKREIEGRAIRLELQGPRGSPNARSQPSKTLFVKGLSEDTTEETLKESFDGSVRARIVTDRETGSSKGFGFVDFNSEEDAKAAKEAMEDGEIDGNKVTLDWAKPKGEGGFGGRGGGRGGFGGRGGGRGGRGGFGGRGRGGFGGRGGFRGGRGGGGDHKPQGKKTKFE
Experimental: (§1) The following assays assessed effects of compounds on interactions between nucleolin and nucleic acid ligands capable of forming quadruplex (QP) and hairpin (HP) secondary structures. Nucleic acid ligands tested were a cMyc QP DNA having nucleotide sequence 5′-[…]-3′ (SEQ ID NO: 176) and a HP pre-rRNA region to which nucleolin binds, having the sequence 5′-[…]-3′ (SEQ ID NO: 177). In the assays, recombinant nucleolin (˜250 nM), which was fused to maltose binding protein and had the sequence under accession number NM_005381 without the N-terminal acidic stretches domain, was incubated with each of the two ^32P-labeled nucleic acid ligands (10 or 250 nM). Nucleolin and the nucleic acid ligand were incubated in the presence or absence of a test compound of Formula A-1, B-1, C-6 or C-7 in an incubation buffer (12.5 mM Tris, pH 7.6, 60 mM KCl, 1 mM MgCl2, 0.1 mM EDTA, 1 mM DTT, 5% glycerol, 0.1 mg/ml BSA) for 30 minutes at room temperature. Structures for A-1 and B-1 are shown above and structures for C-6 and C-7 are shown hereafter: [drawing 17] […]
(§2) The assay also was conducted in a filter-binding format. […] Radioactivity was assayed with MicroBeta scintillation counter (Perkin Elmer). Binding curves were constructed and apparent Kd's and Bmax's for the complexes were calculated using the GraphPad Prizm software program (GraphPad Software). […]

nucleolin/1196NT = biological target: T2, nucleolin/1196NT (Homo sapiens, UniProt P19338); assay: as above; format: binding; design: key to Activity of Compound A-1 (relative interference), ligand 1196NT: +: least interference by compound A-1; ++++: greatest interference by compound A-1
T2 construct: without the N-terminal acidic stretches domain
T2 sequence (P19338 284-710 limits assumed): as above
Experimental: as §1, §2

A549 cells = assay: Cell localization assay (fluorescence microscope); format: cell-based; details: 2 uM, one hour or two hours
Experimental: A cell localization assay was utilized to determine cell localization for compounds that interacted with rRNA. In these studies, A549 cells were plated in borosilicate chamber slides. The cells were treated with 2 uM compound A-1 the next day for one hour or two hours, washed with PBS, fixed for 10 min in 4% paraformaldehyde and observed under a fluorescence microscope (Olympus) in the Ex360 nm/Em548 nm channel at 600× magnification. […] Accordingly, a compound tested in the assay was localized in cell nucleoli.

other kinases = assay: Protein kinase inhibition assays (panel, summary); format: biochemical; details: 2.5 μM
Experimental: Certain compounds were tested for activity in protein kinase inhibition assays. All substrates were dissolved and diluted to working stocks in de-ionized water, apart from histone H1 (10× working stock in 20 mM MOPS pH 7.0), PDKtide (10× working stock in 50 mM Tris pH 7.0) ATF2 (which is typically stored at a 20× working stock in 50 mM Tris pH 7.5, 150 mM NaCl, 0.1 mM EGTA, 0.03% Brij-35, 50% glycerol, 1 mM benzamidine, 0.2 mM PMSF and 0.1% R-mercaptoethanol), KKLNRTLSFAEPG (SEQ ID NO:203) and RRRLSFAEPG (SEQ ID NO:204) (50 mM HEPES pH 7.4) and GGEEEEYFELVKKKK (SEQ ID NO:205) (20 mM MOPS pH 7.0). All kinases were pre-diluted to a 10× working concentration prior to addition into the assay. The composition of the dilution buffer for each kinase is detailed below.
The following table denotes percent residual activity of each protein kinase when incubated with compound A-1 or B-1.

- Activity of Compound A-1 (relative interference), ligand 6183NT (nucleolin/6183NT): +
- IC50 (nucleolin/6183NT; ligand 6183NT, read-out: IC50, concentration of Compound A-1 required to dissociate half of the complexed nucleic acid ligand and nucleolin protein): 3 µM
- Activity of Compound A-1 (relative interference), ligand 1196NT (nucleolin/1196NT): +
- IC50 (nucleolin/1196NT; ligand 1196NT, read-out: IC50, concentration of Compound A-1 required to dissociate half of the complexed nucleic acid ligand and nucleolin protein): 3 µM
- inhibition of other kinases (other kinases): 60-80%
SMILES: CN1CCCC1CCNC(=O)c1cn2c3c(c(N4CCC(c5cnccn5)C4)c(F)cc3c1=O)Oc1cc3ccccc3cc1-2 (stereo not shown) [Compound A-1]
- effect on rRNA synthesis (rRNA synthesis, HCT-116): inhibited rRNA synthesis at two hours and four hours
- cell localization judged by fluorescence intensity (A549 cells): accumulated in the nucleoli, as well as the cytoplasm/perinuclear space
